“Also recorded” adds a separate entry of the source.
Key:
[1] = pig, in vivo
Procedure: Injections were made to depths in the range from 0.8 mm to 1.2 mm One artery was treated intraluminally with 5 mL OGP to determine background vascular uptake. Animals were sacrificed 0.5-23 hr post-procedure following IACUC-approved protocol. After sacrifice, the LAD, RCA and LCx were removed, cut into 4-5 mm sections, which were frozen and cryosectioned. The slides were counter-stained with 0.1% Evan's Blue in PBS (5 min 37 C) to quench autofluorescence, observed with a UV microscope, and scored 0-4+. Representative sections were photographed.

[2] = tested on: graft-vein anastomosis and proximal vein of porcine AV grafts; conditions: pig, in vivo
Procedure: Fourteen days after graft implantation, percutaneous transluminal angioplasty (PTA) was performed (7 mm balloon, 16 atmosphere inflation pressure) at two sites per graft: across the graft-vein anastomosis (GVA) and in the proximal vein (PV). […] Infusions of 3 ml were always consistent between the 2 grafts in each animal.

[3] = tested on: patients with atherosclerotic lower extremity occlusive disease of the superficial femoral or popliteal arteries
Excerpt: Patients with TASC II A, B, and C disease of the superficial femoral and/or popliteal arteries were eligible for this study.
Unique identifier: NCT 01507558). The study design was a prospective, single-center, investigator-initiated study that enrolled consecutive patients who met eligibility requirements from the San Francisco Veteran Affairs Medical Center. This study was approved by the Committee for Human Research and the University of California Clinical and Translational Science Institute. Safety data and outcomes were monitored by a Data Safety and Monitoring Committee that convened on a quarterly basis or as needed.
The primary inclusion criteria were patients suffering from moderate to severe disabling claudication, ischemic rest pain, or minor tissue loss secondary to atherosclerotic lower extremity occlusive disease with TransAtlantic Inter-Society Consensus II […] lesions of the superficial femoral artery (SFA) or popliteal arteries.
The Bullfrog® Micro-Infusion is a rapid-exchange, wire-guided catheter with a balloon-sheathed 0.9-mm-long, 35-gauge (140 μm diameter) needle that delivers infusions to adventitial and perivascular tissues. It is Food and Drug Administration 510(k)-cleared for use in coronary and peripheral arteries. It is advanced through a 6F sheath over a 0.014-inch wire and can treat vessels from 3 to 6 mm in diameter. Three radio-opaque markers on the catheter allow for proper orientation of the needle. Using standard angioplasty inflation equipment, the balloon was inflated exposing the needle. When the balloon contacted the arterial wall opposite the needle tip, contact pressure forced the needle through the vessel wall and into the adventitia and perivascular tissues. The contact pressure of the balloon against the artery wall is limited to 2 atmospheres by a pressure release valve, which prevents damage to the artery wall. A mixture of infusate and contrast (4:1) was then delivered under fluoroscopic guidance into the adventitia. A test injection of 0.1 mL was made to confirm proper adventitial placement of the microinfusion needle tip. If resistance is met, or the test injection enters the blood stream, the balloon was deflated and the injection is attempted in another location by moving the catheter a few millimeters proximally or distally or rotating the catheter a few degrees. Once adventitia placement was confirmed, the remainder of the infusate was delivered at a rate of 1 mL/min. When the infusion was complete, the balloon was deflated, sheathing the needle, and allowing the catheter to be withdrawn. FIG. 12. Injections were administered approximately every 3 cm along the length of the treated arterial segment.
Patients not taking aspirin or clopidogrel before study enrollment received 325 mg of aspirin 12 hours prior the procedure. Postprocedure, patients were prescribed 81 mg/d of aspirin to be taken indefinitely and 75 mg/d of clopidogrel daily for 12 weeks. Vascular access was accomplished by either the contralateral or ipsilateral (anterograde) approach. Patients received a bolus of 5000 IU of heparin after insertion of the sheath in the common femoral artery, and their activated clotting time was kept above 250 seconds with additional heparin as needed. In the case of chronic total occlusions, all lesions were crossed subintimally with a glide wire and glide catheter (Terumo, Somerset, N.J.). After securing access across the lesion with a guidewire, the target lesion was treated according to physician preference. All patients were treated with balloon angioplasty.

[4] = tested on: patients with superficial femoral or popliteal artery lesions; assay: DANCE Trial: circulating hsCRP and MCP-1 after revascularization with adventitial and perivascular dexamethasone; format: in vivo, human; conditions: baseline and 24 hours, about 1.6 mg per cm of lesion
Procedure: An additional study has enrolled 140 patients in the United States, meeting similar enrollment criteria as those in the 20-patient study described above. In these patients, approximately one-third of them have had blood draws right before a revascularization procedure of their superficial femoral or popliteal artery, and then again at 24±4 hours after their revascularization procedure. Arterial lesions in this study were at least 70% occlusive prior to revascularization and up to 15 cm in length. Revascularization therapy was performed with angioplasty, atherectomy, provisional stenting, or a combination thereof. […] The Schillinger 2002 published research would indicate the likelihood for a substantial rise in the hsCRP after revascularization therapy, and that this rise is linked to the rate of restenosis at 6 months following the revascularization procedure. The data from Schillinger 2002 and the 20-patient study described above (the DANCE-Pilot, in which 15 patients had baseline and 24 hour hsCRP levels examined) are plotted in FIG. 15, along with 41 patients from the larger 139 patient group (the DANCE Trial).
Additional data coming out of the interim analysis of the DANCE study includes the first 9 patients to have MCP-1 analyzed from their circulating blood at baseline and at 24 hours. […]

[5] = two injections of 0.5 mL 5% silver nitrate per iliac artery
Excerpt: The animal was sacrificed according to approved protocol following the last injection. The arteries were removed and placed in 10% formalin without perfusion. 2 mm segments were embedded in paraffin, sectioned, and hematoxylin-eosin stained.

[6] = Distribution of tacrolimus after periadventitial injection in swine coronary arteries, LC/MS of tissue; format: in vivo
Procedure: Distribution of a lipophilic compound (tacrolimus): Eight swine underwent angiography. […] The two remaining arteries served as untreated controls. An untreated heart was used as a negative control. At 48 hours arteries were dissected from the musculature and perivascular fat, cut into 5 mm sections and analyzed by Liquid Chromatography/Mass Spectrometry against tacrolimus calibration standards containing homogenized untreated porcine heart tissue.

Molecule: Oregon Green® 488 paclitaxel [OGP]
- circumferential staining [1]: staining was observed throughout the circumference of the artery

Molecule: C[C@@H]1C[C@H]2[C@@H]3CCC4=CC(=O)C=C[C@]4(C)[C@@]3(F)[C@@H](O)C[C@]2(C)[C@@]1(O)C(=O)CO [dexamethasone]
- adverse effect compared to placebo in the adventitia [2]: no observable adverse effect
- patients with target lesion restenosis ([3]; 6 month follow up, PSV ratio >2.4 or occlusion by ultrasound): two
- Rutherford classification scores versus pre-op baseline ([3]; 6 months, all patients but the one with target lesion restenosis): improved
- mean Rutherford score ([3]; 6 months, preoperative 3.1±0.71, P<0.00001): 0.5±0.70
- median Rutherford score ([3]; 6 months, preoperative median 3.0): 0
- mean ABI versus baseline ([3]; all time points post procedure, FIG. 14): significantly improved
- patients with only partial coverage by contrast distribution (grade=B) ([3]; assessed by fluoroscopy): one
- subjects with complete circumferential coverage of the lesion with the infusate (grade=A) ([3]; assessed by fluoroscopy immediately after the infusion): 19 out of 20 subjects
- patients with loss of primary patency (duplex ultrasound binary restenosis) ([3]; by 6 months, 20 patients): Two
- anticipated rise of hsCRP ([3]; compared with Schillinger 2002): appears to be dampened
- patients with target extremity stenosis not within the treated segment ([3]; follow up 381±181 days): Three
- ABI measurements ([3]; one-year follow up, N=10, P<0.0001 vs baseline): 1.04±0.21
- PSVR ([3]; one-year follow up, patients without index lesion restenosis, N=8): 1.1±0.6
- CRP at 24 hours following the procedure ([3]; preoperative 6.9±8.5, P=0.14): 14.0 ± 23.1 mg/L
- increase of CRP at 24 hours ([3]; versus preoperative, not statistically significant (P=0.14)): 103%
- drug or device-related adverse events reported ([3]; within 30 days, acute hyperglycemia in one patient, controlled by insulin): one
- effect on hsCRP inflammatory spike after revascularization ([4]; 41 patients, versus Schillinger 2002, FIG. 15): capable of reducing the inflammatory spike
- change in circulating MCP-1 ([4]; first 9 patients, FIG. 16): marked drop in MCP-1; also recorded: a drop in MCP-1

Molecule: O=[N+]([O-])[O-].[Ag+] [Silver Nitrate]
- staining: site of delivery and diffusion [5]: delivery outside the external elastic lamina of the vessels and diffusion around the circumference

Molecule: C=CC[C@@H]1/C=C(\C)C[C@H](C)C[C@H](OC)[C@H]2O[C@@](O)(C(=O)C(=O)N3CCCC[C@H]3C(=O)O[C@H](/C(C)=C/[C@@H]3CC[C@@H](O)[C@H](OC)C3)[C@H](C)[C@@H](O)CC1=O)[C@H](C)C[C@@H]2OC [tacrolimus]
- segments in which drug was detected ([6]; 48 hours, including side branches and uninjected arteries): 285/293
- subjects with distribution to the entire coronary tree ([6]; periadventitial delivery, higher concentrations at injection sites): 8/8
